Data on 26 molecules can be found in patent publication US8158621B2, “Methods of treating or preventing autoimmune diseases with 2,4-pyrimidinediamine compounds” (Rigel Pharmaceuticals, Inc., priority 2002, dated 2012).

The structures appear in SMILES notation. pIC50: −log10 of the molar value. Where only a bound is given, the exact number is not on record here.

The subject of one test is cultured human mast cells (CHMC). As to the kind of experiment: CHMC low cell density ionomycin activation: tryptase assay. Format: cell-based. Conditions: Homo sapiens, Mast cell, Low Density; read-out: CHMC Ionomycin Tryptase.
On to `CC1=C(Nc2ncc(F)c(Nc3ccc4c(c3)OCCO4)n2)N(c2ccccc2)CO1` [Compound R926793], for which the pIC50 was less than 5.00.

The test is the same for the next values; noted with them: Low Density CHMC, ionomycin activation, tryptase release; read-out: CHMC Ionomycin Tryptase IC50.
As for `O=C(NNc1nc(Nc2ccc3c(c2)OCCO3)ncc1F)c1ccc2c(c1)OCO2` [Compound R926406], the pIC50 was less than 5.00.

Still in this test, the particulars now being: low cell density; read-out: CHMC Ionomycin Tryptase.
With `CNC(=O)COc1cccc(Nc2ncc(F)c(Nc3cccc(NC(C)=O)n3)n2)c1` [Compound R927093], the pIC50 is less than 5.00.
Regarding `CNCC1Cc2cc(Nc3ncc(F)c(Nc4ccc(OC)c(Cl)c4)n3)ccc2O1` (racemic) [Compound R927045], the pIC50 was less than 5.00.
The same measure, in the same setting: in the case of `CNC(=O)n1ccc2ccc(Nc3nc(Nc4ccc(OC)c(Cl)c4)ncc3F)cc21` [Compound R927100] it was less than 5.00; in that of `Nc1cccc(Nc2nc(Nc3ccc(OC(F)(F)F)c(Cl)c3)ncc2F)n1` [Compound R927081], less than 5.00.
`COc1cc(Nc2ncc(F)c(Nc3ccc(OC(F)(F)F)c(Cl)c3)n2)cc(OC)c1` [Compound R927067]: the pIC50 was 4.65.
Still for that read-out and setting: the figure for `COc1cc(Nc2nc(Nc3ccc(CNC(=O)OC(C)(C)C)cc3)ncc2F)cc(OC)c1` [Compound R950456] is 5.36; for `COc1c(Cl)cc(Nc2ncc(F)c(Nc3ccc4c(c3)C(N)CCO4)n2)cc1Cl` (racemic) [Compound R950424] it is 5.37.
Still for that read-out and setting: the figure for `CNC(=O)COc1cccc(Nc2ncc(F)c(Nc3ccc4c(c3)[C@@H](N)CCO4)n2)c1` [Compound R950420] is less than 5.00.
Turning to `COc1cc(Nc2ncc(F)c(Nc3ccc4c(c3)C(=O)NC(=O)C4(C)C)n2)cc(OC)c1` [Compound R909323], the pIC50 is less than 5.00.
Same read-out and setting: the figure for `Cn1cc2ccc(Nc3ncc(F)c(Nc4ccc(Cl)c(Cl)c4)n3)cc2n1` [Compound R935444] is less than 5.00; for `O=C1COc2ccc(Nc3nc(Nc4ccc5cc[nH]c5c4)ncc3F)nc2N1` [Compound R945443] it is less than 5.00.
For `COc1cc(Nc2ncc(F)c(Nc3ccc(OC)c(Cl)c3)n2)cc(OC)c1` [Compound R927066], the pIC50 was 4.82.
Same read-out and setting: the figure for `Cc1cccc(C)c1Nc1ncc(F)c(Nc2ccc3c(c2)OCCO3)n1` [Compound R927086] is less than 5.00; for `COC(=O)COc1cccc(Nc2ncc(F)c(Nc3ccc(N4CCOCC4)cc3)n2)c1` [Compound R945361] it is less than 5.00.
The same measure, in the same setting: in the case of `O=C(COc1cccc(Nc2ncc(F)c(NC3CC3)n2)c1)NC1CC1` [Compound R945363] it was less than 5.00.
Same read-out and setting: the figure for `COc1c(Cl)cc(Nc2ncc(F)c(Nc3ccc4c(c3)NC(=O)[C@H](C)O4)n2)cc1Cl` [Compound R908946] is less than 5.00; for `CCN(CC)CCCNc1ncc(F)c(Nc2ccc3c(c2)C(=O)NC(=O)C3(C)C)n1` [Compound R950472] it is less than 5.00.
Regarding `CCN(CC)CCNC(=O)c1ccc(Nc2ncc(F)c(Nc3ccc4c(c3)C(=O)NC(=O)C4(C)C)n2)cc1` [Compound R950447], the pIC50 was less than 5.00.
The same measure, in the same setting: in the case of `COc1ccc(Nc2nc(Nc3ccc4c(cnn4CCCO)c3)ncc2F)cc1Cl` [Compound R935461] it was 5.30.
Same read-out and setting: in the case of `CNC(=O)CCn1cc2cc(Nc3ncc(F)c(Nc4ccc(Cl)c(Cl)c4)n3)ccc2n1` [Compound R935452] it was less than 5.00; in that of `CCN(CC)CCCNc1ncc(F)c(Nc2ccc(Cl)c(Cl)c2)n1` [Compound R950470], less than 5.00.
Same read-out and setting: in the case of `COc1ccc(Nc2nc(Nc3cccc(OCC(=O)NC4CC4)c3)ncc2F)cc1Cl` [Compound R926967] it was less than 5.00; in that of `COc1ccc(Nc2nc(Nc3ccc4cn[nH]c4c3)ncc2F)cc1Cl` [Compound R935408], 5.00; in that of `CCOC(=O)CCn1cc2cc(Nc3ncc(F)c(Nc4ccc5c(c4)NC(=O)C(C)(C)O5)n3)ccc2n1` [Compound R935448], 5.37.

For another test the test system is unchanged. As to the kind of experiment: CHMC low cell density IgE activation: tryptase assay. Format: cell-based. Conditions: Homo sapiens, Mast cell, Low Density; read-out: CHMC anti-IgE Tryptase. The gist of the method: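 Degranulation was triggered with anti-IgE for 30 minutes at 37° C in cultured human mast cells seeded at low density (1000-1500 cells/well, chosen by donor) after a 1 hr equilibration in MT buffer. Released tryptase in cleared supernatant was quantified with a tryptase substrate at room temperature for 30 minutes.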
In the case of `CC1=C(Nc2ncc(F)c(Nc3ccc4c(c3)OCCO4)n2)N(c2ccccc2)CO1` [Compound R926793], the pIC50 was 5.51.

Still in this test, the particulars now being: Low Density CHMC, anti-IgE activation, tryptase release; read-out: CHMC anti-IgE Tryptase IC50.
Consider `O=C(NNc1nc(Nc2ccc3c(c2)OCCO3)ncc1F)c1ccc2c(c1)OCO2` [Compound R926406], for which the pIC50 was less than 5.00.

The same test, now with this note: low cell density; read-out: CHMC anti-IgE Tryptase.
As for `CNC(=O)COc1cccc(Nc2ncc(F)c(Nc3cccc(NC(C)=O)n3)n2)c1` [Compound R927093], the pIC50 was 6.52.
Still for that read-out and setting: in the case of `CNCC1Cc2cc(Nc3ncc(F)c(Nc4ccc(OC)c(Cl)c4)n3)ccc2O1` (racemic) [Compound R927045] it was 6.27; in that of `CNC(=O)n1ccc2ccc(Nc3nc(Nc4ccc(OC)c(Cl)c4)ncc3F)cc21` [Compound R927100], 5.21; in that of `Nc1cccc(Nc2nc(Nc3ccc(OC(F)(F)F)c(Cl)c3)ncc2F)n1` [Compound R927081], 5.64.
Same read-out and setting: in the case of `COc1cc(Nc2ncc(F)c(Nc3ccc(OC(F)(F)F)c(Cl)c3)n2)cc(OC)c1` [Compound R927067] it was 6.20; in that of `COc1cc(Nc2nc(Nc3ccc(CNC(=O)OC(C)(C)C)cc3)ncc2F)cc(OC)c1` [Compound R950456], 5.42.
The same measure, in the same setting: in the case of `COc1c(Cl)cc(Nc2ncc(F)c(Nc3ccc4c(c3)C(N)CCO4)n2)cc1Cl` (racemic) [Compound R950424] it was 6.63; in that of `CNC(=O)COc1cccc(Nc2ncc(F)c(Nc3ccc4c(c3)[C@@H](N)CCO4)n2)c1` [Compound R950420], 6.94; in that of `COc1cc(Nc2ncc(F)c(Nc3ccc4c(c3)C(=O)NC(=O)C4(C)C)n2)cc(OC)c1` [Compound R909323], less than 5.00.
Regarding `Cn1cc2ccc(Nc3ncc(F)c(Nc4ccc(Cl)c(Cl)c4)n3)cc2n1` [Compound R935444], the pIC50 is 6.37.
The same measure, in the same setting: the figure for `O=C1COc2ccc(Nc3nc(Nc4ccc5cc[nH]c5c4)ncc3F)nc2N1` [Compound R945443] is 7.09.
For `COc1cc(Nc2ncc(F)c(Nc3ccc(OC)c(Cl)c3)n2)cc(OC)c1` [Compound R927066], the pIC50 was 6.55.
On the same count and under the same terms, the figure for `Cc1cccc(C)c1Nc1ncc(F)c(Nc2ccc3c(c2)OCCO3)n1` [Compound R927086] is 6.54; for `COC(=O)COc1cccc(Nc2ncc(F)c(Nc3ccc(N4CCOCC4)cc3)n2)c1` [Compound R945361] it is 5.63; for `O=C(COc1cccc(Nc2ncc(F)c(NC3CC3)n2)c1)NC1CC1` [Compound R945363] it is 6.16.
Same read-out and setting: in the case of `COc1c(Cl)cc(Nc2ncc(F)c(Nc3ccc4c(c3)NC(=O)[C@H](C)O4)n2)cc1Cl` [Compound R908946] it was 6.29; in that of `CCN(CC)CCCNc1ncc(F)c(Nc2ccc3c(c2)C(=O)NC(=O)C3(C)C)n1` [Compound R950472], 5.16.
Still for that read-out and setting: the figure for `CCN(CC)CCNC(=O)c1ccc(Nc2ncc(F)c(Nc3ccc4c(c3)C(=O)NC(=O)C4(C)C)n2)cc1` [Compound R950447] is 5.85; for `COc1ccc(Nc2nc(Nc3ccc4c(cnn4CCCO)c3)ncc2F)cc1Cl` [Compound R935461] it is 6.87.
On to `CNC(=O)CCn1cc2cc(Nc3ncc(F)c(Nc4ccc(Cl)c(Cl)c4)n3)ccc2n1` [Compound R935452], for which the pIC50 was 6.67.
Same read-out and setting: in the case of `CCN(CC)CCCNc1ncc(F)c(Nc2ccc(Cl)c(Cl)c2)n1` [Compound R950470] it was 4.79; in that of `COc1ccc(Nc2nc(Nc3cccc(OCC(=O)NC4CC4)c3)ncc2F)cc1Cl` [Compound R926967], 6.59; in that of `COc1ccc(Nc2nc(Nc3ccc4cn[nH]c4c3)ncc2F)cc1Cl` [Compound R935408], 6.86.
Consider `CCOC(=O)CCn1cc2cc(Nc3ncc(F)c(Nc4ccc5c(c4)NC(=O)C(C)(C)O5)n3)ccc2n1` [Compound R935448], for which the pIC50 is 6.95.
